Experimental data from PubChem BioAssay AID1963851 (Molecular Pharmacology Branch, DTP, NCI, 2024).

Tested on: 188146-221-R-J1-PDC complex spheroid viability
Assay: Anticancer human tumor 188146-221-R-J1-PDC patient-derived colon adenocarcinoma cell line growth inhibition [POLQ]
Settings: for IC50: curve of first compound; for viability, T/C: stronger effect = lower value
Method in brief: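 Three-cell-type spheroids modelling solid tumor plus stroma served as the readout system; POL inhibitors were tested individually and in combination, concentration ranges set by clinical Cmax where known.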

[1] = second compound 0.0316 µM, first compound 0.0316 µM
[2] = second compound 0.0316 µM, first compound 0.1 µM
[3] = second compound 0.0316 µM, first compound 0.316 µM
[4] = second compound 0.0316 µM, first compound 1 µM
[5] = second compound 0.0316 µM, first compound 3.16 µM
[6] = second compound 0.0316 µM, first compound 10 µM
[7] = second compound 0.1 µM, first compound 0.0316 µM
[8] = second compound 0.1 µM, first compound 0.1 µM
[9] = second compound 0.1 µM, first compound 0.316 µM
[10] = second compound 0.1 µM, first compound 1 µM
[11] = second compound 0.1 µM, first compound 3.16 µM
[12] = second compound 0.1 µM, first compound 10 µM
[13] = second compound 0.316 µM, first compound 0.0316 µM
[14] = second compound 0.316 µM, first compound 0.1 µM
[15] = second compound 0.316 µM, first compound 0.316 µM
[16] = second compound 0.316 µM, first compound 1 µM
[17] = second compound 0.316 µM, first compound 3.16 µM
[18] = second compound 0.316 µM, first compound 10 µM
[19] = second compound 1 µM, first compound 0.0316 µM
[20] = second compound 1 µM, first compound 0.1 µM
[21] = second compound 1 µM, first compound 0.316 µM
[22] = second compound 1 µM, first compound 1 µM
[23] = second compound 1 µM, first compound 3.16 µM
[24] = second compound 1 µM, first compound 10 µM
[25] = second compound 3.16 µM, first compound 0.0316 µM
[26] = second compound 3.16 µM, first compound 0.1 µM
[27] = second compound 3.16 µM, first compound 0.316 µM
[28] = second compound 3.16 µM, first compound 1 µM
[29] = second compound 3.16 µM, first compound 3.16 µM
[30] = second compound 3.16 µM, first compound 10 µM
[31] = second compound 10 µM, first compound 0.0316 µM
[32] = second compound 10 µM, first compound 0.1 µM
[33] = second compound 10 µM, first compound 0.316 µM
[34] = second compound 10 µM, first compound 1 µM
[35] = second compound 10 µM, first compound 3.16 µM
[36] = second compound 10 µM, first compound 10 µM
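Note: spheroids exposed to compounds for seven days.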
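Throughout, for viability, T/C: 100% = DMSO vehicle control viability.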

Compound: CC1COCCN1c1cc(C2(O)CC3CCC(C2)O3)c2cnn(-c3ccn[nH]3)c2n1 (stereo unspecified) + COC1C(OC(N)=O)C(O)C(Oc2ccc3c(O)c(NC(=O)c4ccc(O)c(CC=C(C)C)c4)c(=O)oc3c2C)OC1(C)C
- IC50 (second compound 0.0316 µM): 295 nM
- IC50 (second compound 0.1 µM): 428 nM
- IC50 (second compound 0.316 µM): 425 nM
- IC50 (second compound 1 µM): 425 nM
- IC50 (second compound 3.16 µM): 299 nM
- IC50 (second compound 10 µM): 195 nM
- viability, T/C [1]: 93.4%
- viability, T/C [2]: 68.8%
- viability, T/C [3]: 53.1%
- viability, T/C [4]: 25.5%
- viability, T/C [5]: 18%
- viability, T/C [6]: 9.03%
- viability, T/C [7]: 94.5%
- viability, T/C [8]: 78.5%
- viability, T/C [9]: 56.9%
- viability, T/C [10]: 30.9%
- viability, T/C [11]: 21.2%
- viability, T/C [12]: 8.19%
- viability, T/C [13]: 94.7%
- viability, T/C [14]: 74.1%
- viability, T/C [15]: 57%
- viability, T/C [16]: 35.4%
- viability, T/C [17]: 17%
- viability, T/C [18]: 9.09%
- viability, T/C [19]: 93.8%
- viability, T/C [20]: 79.3%
- viability, T/C [21]: 57.2%
- viability, T/C [22]: 30.6%
- viability, T/C [23]: 17.5%
- viability, T/C [24]: 9.21%
- viability, T/C [25]: 82.1%
- viability, T/C [26]: 67.2%
- viability, T/C [27]: 51.3%
- viability, T/C [28]: 26.3%
- viability, T/C [29]: 14.9%
- viability, T/C [30]: 8.05%
- viability, T/C [31]: 90.5%
- viability, T/C [32]: 62.4%
- viability, T/C [33]: 41.8%
- viability, T/C [34]: 22.8%
- viability, T/C [35]: 19%
- viability, T/C [36]: 7.81%

Compound: CC[C@@]1(O)C(=O)OCc2c1cc1n(c2=O)Cc2cc3c(CN(C)C)c(O)ccc3nc2-1 + Nc1ccc(C#CCN(C(=O)Cc2ncc(C(F)(F)F)cc2C(F)(F)F)c2ccc(F)cc2)nn1
- IC50 (second compound 0.0316 µM): > 100 nM
- IC50 (second compound 0.1 µM): > 100 nM
- IC50 (second compound 0.316 µM): > 100 nM
- IC50 (second compound 1 µM): > 100 nM
- IC50 (second compound 3.16 µM): > 100 nM
- IC50 (second compound 10 µM): > 100 nM
- viability, T/C (second compound 0.0316 µM, first compound 0.000316 µM): 89.7%
- viability, T/C (second compound 0.0316 µM, first compound 0.001 µM): 95.7%
- viability, T/C (second compound 0.0316 µM, first compound 0.00316 µM): 84.3%
- viability, T/C (second compound 0.0316 µM, first compound 0.01 µM): 101%
- viability, T/C [1]: 96.4%
- viability, T/C [2]: 73.5%
- viability, T/C (second compound 0.1 µM, first compound 0.000316 µM): 118%
- viability, T/C (second compound 0.1 µM, first compound 0.001 µM): 84.1%
- viability, T/C (second compound 0.1 µM, first compound 0.00316 µM): 95.1%
- viability, T/C (second compound 0.1 µM, first compound 0.01 µM): 100%
- viability, T/C [7]: 84.9%
- viability, T/C [8]: 74.9%
- viability, T/C (second compound 0.316 µM, first compound 0.000316 µM): 104%
- viability, T/C (second compound 0.316 µM, first compound 0.001 µM): 88.4%
- viability, T/C (second compound 0.316 µM, first compound 0.00316 µM): 101%
- viability, T/C (second compound 0.316 µM, first compound 0.01 µM): 97.5%
- viability, T/C [13]: 103%
- viability, T/C [14]: 69.5%
- viability, T/C (second compound 1 µM, first compound 0.000316 µM): 103%
- viability, T/C (second compound 1 µM, first compound 0.001 µM): 102%
- viability, T/C (second compound 1 µM, first compound 0.00316 µM): 90.5%
- viability, T/C (second compound 1 µM, first compound 0.01 µM): 86.4%
- viability, T/C [19]: 82.3%
- viability, T/C [20]: 68.2%
- viability, T/C (second compound 3.16 µM, first compound 0.000316 µM): 106%
- viability, T/C (second compound 3.16 µM, first compound 0.001 µM): 92.9%
- viability, T/C (second compound 3.16 µM, first compound 0.00316 µM): 95.1%
- viability, T/C (second compound 3.16 µM, first compound 0.01 µM): 89.3%
- viability, T/C [25]: 83%
- viability, T/C [26]: 80.1%
- viability, T/C (second compound 10 µM, first compound 0.000316 µM): 100%
- viability, T/C (second compound 10 µM, first compound 0.001 µM): 96.8%
- viability, T/C (second compound 10 µM, first compound 0.00316 µM): 98.9%
- viability, T/C (second compound 10 µM, first compound 0.01 µM): 98.3%
- viability, T/C [31]: 90.5%
- viability, T/C [32]: 66.2%

Compound: COc1cc2cc(C(=O)CCC(=O)O)sc2cc1OC + Nc1ccc(C#CCN(C(=O)Cc2ncc(C(F)(F)F)cc2C(F)(F)F)c2ccc(F)cc2)nn1
- IC50 (second compound 0.0316 µM): > 10000 nM
- IC50 (second compound 0.1 µM): > 10000 nM
- IC50 (second compound 0.316 µM): > 10000 nM
- IC50 (second compound 1 µM): > 10000 nM
- IC50 (second compound 3.16 µM): > 10000 nM
- IC50 (second compound 10 µM): > 10000 nM
- viability, T/C [1]: 115%
- viability, T/C [2]: 102%
- viability, T/C [3]: 96.4%
- viability, T/C [4]: 119%
- viability, T/C [5]: 90.2%
- viability, T/C [6]: 105%
- viability, T/C [7]: 105%
- viability, T/C [8]: 115%
- viability, T/C [9]: 107%
- viability, T/C [10]: 96.2%
- viability, T/C [11]: 118%
- viability, T/C [12]: 102%
- viability, T/C [13]: 109%
- viability, T/C [14]: 100%
- viability, T/C [15]: 89.3%
- viability, T/C [16]: 107%
- viability, T/C [17]: 107%
- viability, T/C [18]: 97.4%
- viability, T/C [19]: 117%
- viability, T/C [20]: 116%
- viability, T/C [21]: 106%
- viability, T/C [22]: 96.3%
- viability, T/C [23]: 104%
- viability, T/C [24]: 102%
- viability, T/C [25]: 105%
- viability, T/C [26]: 114%
- viability, T/C [27]: 96.8%
- viability, T/C [28]: 119%
- viability, T/C [29]: 109%
- viability, T/C [30]: 118%
- viability, T/C [31]: 101%
- viability, T/C [32]: 130%
- viability, T/C [33]: 98.5%
- viability, T/C [34]: 113%
- viability, T/C [35]: 104%
- viability, T/C [36]: 120%
